Laboratory results from patent US20240122180A1, “FUNGICIDAL HALOMETHYL KETONES AND HYDRATES AND THEIR MIXTURES” (FMC Corporation, priority 2020, published 2024).

Tests used:
[1] = test system: Phakopsora pachyrhizi (the causal agent of Asian soybean rust); test: Test A: preventive spray on soybean seedlings, visual disease rating (100 = 100% control; * 50 ppm, ** 10 ppm, *** 250 ppm); type: in vivo; settings: 100 = 100% disease control, 0 = no control; for pest or weed control at 10 ppm / pest or weed control at 50 ppm: Phakopsora pachyrhizi
Method in brief: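 Soybean seedlings sprayed to run-off with compound suspended in acetone/water with 250 ppm PEG400 surfactant, inoculated next day with P. pachyrhizi spores. Kept 24 h saturated at 22 °C, then 8 days at 22 °C before visual rating of disease control (0-100) relative to controls.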

[2] = test system: Puccinia recondita f. sp. tritici (the causal agent of wheat leaf rust); test: Test B: preventive spray on wheat seedlings, disease rating (100 = 100% control; * 50 ppm, ** 10 ppm, *** 250 ppm); type: in vivo; settings: 100 = 100% disease control, 0 = no control; for pest or weed control at 10 ppm / pest or weed control at 50 ppm: Puccinia recondita
Method in brief: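 Wheat seedlings sprayed to run-off with compound in acetone/water (50/50) containing 250 ppm PEG400, inoculated next day with Puccinia recondita f. sp. tritici spores. Held 24 h saturated at 20° C, then 6 days at 20° C; disease control rated 0–100 relative to controls.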

| SMILES | Test A disease control rating ([1]; 10 ppm test suspension) [%] | Test B disease control rating ([2]; 10 ppm test suspension) [%] | also measured |
| --- | --- | --- | --- |
| CCCCOC(=O)c1cnn(Cc2cccc(O/C=C(\OCC)C(F)(F)F)c2)c1 [compound 339] | 100 | 0 |  |
| CCO/C(=C\Oc1cccc(Cn2cc(C(=O)OCCOC)cn2)c1)C(F)(F)F [compound 340] | 100 | 0 |  |
| CCO/C(=C\Oc1cccc(Cn2cc(C(=O)OCC3CC3)cn2)c1)C(F)(F)F [compound 341] | 100 | 0 |  |
| CCO/C(=C\Oc1cccc(Cn2cc(C(=O)OCC3CCC3)cn2)c1)C(F)(F)F [compound 342] | 100 | 0 |  |
| CCNC(=O)c1cnn(Cc2cccc(O/C=C(\OCC)C(F)(F)F)c2)c1 [compound 343] | 0 | 0 |  |
| CCOC(=O)c1cnn(Cc2ccc(O/C=C(\OCC)C(F)(F)F)c(Br)c2)c1 [compound 344] |  |  | Test A disease control rating ([1]; 50 ppm test suspension): 100%; Test B disease control rating ([2]; 50 ppm test suspension): 0% |
| CCOC(=O)c1cnn(CCc2cccc(O/C=C(\OCC)C(F)(F)F)c2)c1 [compound 345] | 0 | 0 |  |
| CCOC(=O)c1cnn(CCc2cccc(OCC(O)(O)C(F)(F)F)c2)c1 [compound 346] |  |  | pest or weed control at 10 ppm ([1]; 10 ppm test suspension): 0%; pest or weed control at 10 ppm ([2]; 10 ppm test suspension): 0% |
| CCO/C(=C\Oc1cccc(Cn2cc(C(=O)OCC(F)F)cn2)c1)C(F)(F)F [compound 347] |  |  | Test A disease control rating ([1]; 50 ppm test suspension): 100%; Test B disease control rating ([2]; 50 ppm test suspension): 0% |
| CCO/C(=C\Oc1cccc(Cn2cc(C(=O)OCCC(F)(F)F)cn2)c1)C(F)(F)F [compound 348] | 100 | 0 |  |
| CCO/C(=C\Oc1cccc(Cn2cc(C(=O)OCCC(F)=C(F)F)cn2)c1)C(F)(F)F [compound 349] | 100 | 0 |  |
| CCO/C(=C\Oc1cccc(Cn2cc(C(=O)OCCC(C)C)cn2)c1)C(F)(F)F [compound 350] | 100 | 0 |  |
| CCO/C(=C\Oc1cccc(Cn2cc(C(=O)OCCCOC)cn2)c1)C(F)(F)F [compound 351] | 100 | 0 |  |
| CCO/C(=C\Oc1cccc(Cn2cc(C(=O)OCCOC(F)(F)F)cn2)c1)C(F)(F)F [compound 352] | 100 | 0 |  |
| CCOC(=O)c1cnn(COc2cccc(OCC3(C(F)(F)F)OCCO3)c2)c1 [compound 353] |  |  | pest or weed control at 50 ppm ([1]; 50 ppm test suspension): 0%; pest or weed control at 50 ppm ([2]; 50 ppm test suspension): 0% |
| CCO/C(=C\Oc1ccc(CCn2cc(C(=O)OC)cn2)cc1)C(F)(F)F [compound 354] | 100 | 0 |  |
| CCO/C(=C\Oc1cccc(Cn2cc(C(=O)OCCCC(F)(F)F)cn2)c1)C(F)(F)F [compound 355] | 100 | 0 |  |
| CCCCOC(=O)c1ccn(Cc2ccc(O/C=C(\OCC)C(F)(F)F)cc2)n1 [compound 356] | 100 | 0 |  |
| CCO/C(=C\Oc1ccc(Cn2ccc(C(=O)OCC(C)C)n2)cc1)C(F)(F)F [compound 357] | 100 | 9 |  |
| C=C(C)COC(=O)c1ccn(Cc2ccc(O/C=C(\OCC)C(F)(F)F)cc2)n1 [compound 358] | 100 | 0 |  |
| CCO/C(=C\Oc1ccc(Cn2ccc(C(=O)OCC(C)=O)n2)cc1)C(F)(F)F [compound 359] | 100 | 0 |  |
| CCO/C(=C\Oc1ccc(Cn2ccc(C(=O)OCCOC)n2)cc1)C(F)(F)F [compound 360] | 100 | 0 |  |

| SMILES | Test A disease control rating ([1]; 10 ppm test suspension) [%] | Test B disease control rating ([2]; 10 ppm test suspension) [%] | also measured |
| --- | --- | --- | --- |
| CCO/C(=C\Oc1ccc(Cn2ccc(C(=O)OCC3CCC3)n2)cc1)C(F)(F)F [compound 361] | 100 | 0 |  |
| CCO/C(=C\Oc1ccc(Cn2ccc(C(=O)OCCCCl)n2)cc1)C(F)(F)F [compound 362] | 100 | 0 |  |
| CCOC(=O)c1cnn(Cc2cccc(O/C=C(\OC)C(F)(F)F)c2)c1 [compound 365] | 100 | 0 |  |
| CCOC(=O)c1nccn1Cc1cccc(O/C=C(\OCC)C(F)(F)F)c1 [compound 367] |  |  | pest or weed control at 10 ppm ([1]; 10 ppm test suspension): 0%; pest or weed control at 10 ppm ([2]; 10 ppm test suspension): 0% |
| CCOC(=O)c1csc(Cc2cccc(O/C=C(\OCC)C(F)(F)F)c2)n1 [compound 370] | 0 | 0 |  |
| CCOC(=COc1ccc(NC(=O)C2CC2)cc1)C(F)(F)F [compound 371] |  |  | Test A disease control rating ([1]; 50 ppm test suspension): 0%; Test B disease control rating ([2]; 50 ppm test suspension): 77% |
| CCO/C(=C\Oc1cccc(Cc2nc(C(=O)NCC(F)(F)F)cs2)c1)C(F)(F)F [compound 377] |  |  | pest or weed control at 10 ppm ([1]; 10 ppm test suspension): 44%; pest or weed control at 10 ppm ([2]; 10 ppm test suspension): 0% |
| CCOC(=O)c1ccn(Cc2cc(OC)cc(O/C=C(\OCC)C(F)(F)F)c2)n1 [compound 378] | 0 | 0 |  |
| COC(COc1cccc(Cn2cc(Br)cn2)c1)(O[Si](C)(C)C)C(F)(F)F (centres unmarked) [compound 385] |  |  | pest or weed control at 50 ppm ([1]; 50 ppm test suspension): 100%; pest or weed control at 50 ppm ([2]; 50 ppm test suspension): 68% |
| Cc1ccc(OCC(O)(O)C(F)(F)F)cc1 [compound 396] |  |  | Test A disease control rating ([1]; 50 ppm test suspension): 31%; Test B disease control rating ([2]; 50 ppm test suspension): 19% |
| CCO/C(=C\Oc1cccc(Cc2nc(C(=O)NCC(F)F)cs2)c1)C(F)(F)F [compound 398] |  |  | pest or weed control at 10 ppm ([1]; 10 ppm test suspension): 0%; pest or weed control at 10 ppm ([2]; 10 ppm test suspension): 0% |
| CCOC(=O)c1cnn(Cc2ccc(O/C=C(/OCC)C(F)(F)F)cc2)c1 [compound 399] |  |  | pest or weed control at 50 ppm ([1]; 50 ppm test suspension): 97%; pest or weed control at 50 ppm ([2]; 50 ppm test suspension): 0% |
| CCOC(=O)c1cnn(Cc2ccc(O/C=C(\OCC#N)C(F)(F)F)cc2)c1 [compound 400] |  |  | Test A disease control rating ([1]; 50 ppm test suspension): 100%; Test B disease control rating ([2]; 50 ppm test suspension): 0% |
| CCOC(=O)c1ccn(Cc2cc(C)cc(O/C=C(\OCC)C(F)(F)F)c2)n1 [compound 405] |  |  | Test A disease control rating ([1]; 50 ppm test suspension): 0%; Test B disease control rating ([2]; 50 ppm test suspension): 0% |
| CCOC(=O)c1cnn(Cc2cc(C)cc(O/C=C(\OCC)C(F)(F)F)c2)c1 [compound 406] |  |  | Test A disease control rating ([1]; 50 ppm test suspension): 0%; Test B disease control rating ([2]; 50 ppm test suspension): 0% |
| CCOC(=O)c1ccn(Cc2ccc(OC)c(O/C=C(\OCC)C(F)(F)F)c2)n1 [compound 407] |  |  | Test A disease control rating ([1]; 50 ppm test suspension): 0%; Test B disease control rating ([2]; 50 ppm test suspension): 0% |
| CCOC(=O)c1cnn(Cc2ccc(OC)c(O/C=C(\OCC)C(F)(F)F)c2)c1 [compound 408] |  |  | Test A disease control rating ([1]; 50 ppm test suspension): 44%; Test B disease control rating ([2]; 50 ppm test suspension): 0% |
| CCNC(=O)N1CC(c2ccc(OCC3(C(F)(F)F)OCCO3)cc2)C1 [compound 411] |  |  | Test A disease control rating ([1]; 50 ppm test suspension): 87%; Test B disease control rating ([2]; 50 ppm test suspension): 0% |
| CCNC(=O)N1CC(c2ccc(OC=C(OCC)C(F)(F)F)cc2)C1 [compound 412] |  |  | Test A disease control rating ([1]; 50 ppm test suspension): 100%; Test B disease control rating ([2]; 50 ppm test suspension): 0% |
| CCOC(=O)c1cnn(CCCc2cccc(OCC(O)(O)C(F)(F)F)c2)c1 [compound 417] |  |  | pest or weed control at 10 ppm ([1]; 10 ppm test suspension): 0%; pest or weed control at 10 ppm ([2]; 10 ppm test suspension): 0% |
| CCOC(=O)c1cnn(Cc2ccc(F)c(O/C=C(\OCC)C(F)(F)F)c2)c1 [compound 418] | 0 | 0 |  |
